Test results reported in BindingDB's records for doi:10.7270/Q2TX3CTT (Broad Institute, 2010).
Counter-ions that a name gives are not always drawn.

Biological target: Glycogen synthase kinase-3 beta (Homo sapiens, UniProt P49841)
Test: concentration-response blocking of human GSK3B – biochemical, luminescence, cell-free homogeneous, retest, dose response (AID 434954)

Glycogen synthase kinase-3 beta, sequence (P49841 whole entry): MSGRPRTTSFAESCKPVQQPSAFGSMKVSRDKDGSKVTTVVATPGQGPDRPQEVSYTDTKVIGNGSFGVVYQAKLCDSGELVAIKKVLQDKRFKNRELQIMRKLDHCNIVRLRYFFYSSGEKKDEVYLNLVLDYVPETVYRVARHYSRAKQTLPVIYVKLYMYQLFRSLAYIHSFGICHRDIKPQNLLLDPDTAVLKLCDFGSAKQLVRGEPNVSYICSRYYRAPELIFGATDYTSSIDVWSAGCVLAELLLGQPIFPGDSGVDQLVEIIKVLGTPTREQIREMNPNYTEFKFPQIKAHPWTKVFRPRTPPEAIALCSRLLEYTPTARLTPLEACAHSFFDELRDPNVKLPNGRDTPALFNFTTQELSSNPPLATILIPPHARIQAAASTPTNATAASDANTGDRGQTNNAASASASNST

Row | SMILES | EC50 [µM]
1 | O=c1c(-c2ccccc2)c(-c2ccccc2)oc2cc(O)cc(O)c12 | 24.6
2 | Cn1nc(-c2ccc(Cl)cc2)nc2c(=O)n(C)c(=O)nc1-2 [3-(4-Chloro-phenyl)-1,6-dimethyl-1H-pyrimido[5,4-e][1,2,4]triazine-5,7-dione] | 24
3 | COc1cc(/C=N/NC(=O)c2ccc3ccccc3c2)ccc1Oc1ccc([N+](=O)[O-])cn1 [N-[[3-methoxy-4-(5-nitropyridin-2-yl)oxy-phenyl]methylideneamino]naphthalene-2-carboxamide] | > 300
4 | CCn1cc(CN2CCC(n3nccc3NC(=O)CCCc3ccccc3)CC2)cn1 [N-[2-[1-[(1-ethylpyrazol-4-yl)methyl]piperidin-4-yl]pyrazol-3-yl]-4-phenyl-butanamide] | > 300
5 | Nc1ccccc1Nc1cc(-c2ccccc2)[nH]n1 [2-N-(5-phenyl-1H-pyrazol-3-yl)benzene-1,2-diamine] | > 300
6 | CC1=NC2=C(C(=O)CC(C)(C)C2)C(c2ccc(O)cc2)C1C#N (stereo unspecified) | > 300
7 | COc1ccc(CNCCC(c2ccc(F)cc2)c2ccc(OC)cc2)cc1 (stereo unspecified) [3-(4-fluorophenyl)-3-(4-methoxyphenyl)-N-[(4-methoxyphenyl)methyl]propan-1-amine] | > 300
8 | COc1cc(-c2cc(=O)c3c(O)c(OC)c(OC)c(O)c3o2)ccc1O [5,8-dihydroxy-2-(4-hydroxy-3-methoxy-phenyl)-6,7-dimethoxy-chromone] | 24.9
9 | Cc1c(C(=O)OCc2ccccc2)nnn1-c1nonc1N [(phenylmethyl) 1-(4-azanyl-1,2,5-oxadiazol-3-yl)-5-methyl-1,2,3-triazole-4-carboxylate] | 7.34
10 | Cc1ccc(C(=O)ON=C(N)c2ccccn2)c(C)c1 | 14.9
11 | Nc1nc(NCC2CCCO2)nc(NCC2CCCO2)c1[N+](=O)[O-] (stereo unspecified) | 12.2
12 | O=C1c2ccccc2NC(c2c[nH]nc2-c2ccccc2)N1O (stereo unspecified) | > 300
13 | NS(=O)(=O)c1cc(C(=O)NNC2=c3ccccc3=NC2=O)ccc1Cl [2-chloro-5-[[(2-oxoindol-3-yl)amino]carbamoyl]benzenesulfonamide] | 43.9
14 | CCN1CCN(c2cc(C)c3cc(NC(=O)c4cc(OC)cc(OC)c4)ccc3n2)CC1 [N-[2-(4-ethylpiperazin-1-yl)-4-methylquinolin-6-yl]-3,5-dimethoxybenzamide] | > 300
15 | CC1(C)N=C(N)N=C(N)N1c1ccc(Oc2ccc(Cl)cc2)c(Cl)c1 [1-[3-chloro-4-(4-chlorophenoxy)phenyl]-6,6-dimethyl-1,3,5-triazine-2,4-diamine;hydrochloride] | > 300
16 | COc1ccc(-c2cc(=O)oc3c(C)c(O)ccc23)cc1 [7-hydroxy-4-(4-methoxyphenyl)-8-methylchromen-2-one] | > 300
17 | COc1ccc(/C=C2/Sc3ccc(C(=O)NCCCN4CCOCC4)cc3NC2=O)cc1OC [(2E)-2-[(3,4-dimethoxyphenyl)methylidene]-N-[3-(4-morpholinyl)propyl]-3-oxo-4H-1,4-benzothiazine-6-carboxamide] | 60.3
18 | COc1cc(CN=O)ccc1OCc1ccccc1Cl [4-(2-chlorobenzyl)oxy-3-methoxy-benzaldoxime] | > 300

Other lines, results leading:

Row | EC50 [µM] | SMILES
19 | 52.5 | COc1ccc(CNC(=O)CN(Cc2ccc(OC)cc2)C(=O)CCC(=O)Nc2ccccn2)cc1 [SMR000600506]
20 | > 300 | O=C(O)c1cccc(CSc2nnc(-c3cccnc3)o2)c1 [SMR000503811]
21 | 23.1 | O=C(Nc1ccc([N+](=O)[O-])cn1)C1CC1 [SMR000227137]
22 | 13.9 | COc1ccc(C(=O)ON=C(C)c2cccs2)cc1 [MLS000544771]
23 | > 300 | O=C(/C=C/c1ccc2ccccc2c1)c1ccoc1 [SMR000179251]
24 | > 300 | O=C1C2C3C=CC(C3)C2C(=O)N1CCCCCCN1C(=O)C2C3C=CC(C3)C2C1=O (stereo unspecified) [SMR000283963]
25 | > 300 | COCCn1c(SCC(=O)NCc2ccccc2)nc2ccccc21 [MLS001171409]
26 | > 300 | NC(=O)CSc1nnc(COc2ccc3ccccc3c2)o1 [MLS001203608]
